Experimental data: US20190209501A1, “COMPOSITIONS AND METHODS OF USE OF BETA-HYDROXY-BETA-METHYLBUTYRATE (HMB) […] IN[…]” (Texas Tech University Office of Research Commercialization, priority 2018, published 2019)

Assay: Isometric squat rate of force development (RFD)
Assay type: in vivo, human
Design: RFD50 ms / RFD50 ms Δ / RFD100 ms / RFD100 ms Δ / RFD200 ms / RFD200 ms Δ / RFD30 ms / RFD30 ms Δ: unit not given here
Details: for RFD30 ms Δ / RFD30 ms Δ (%) / RFD50 ms Δ / RFD50 ms Δ (%) / RFD100 ms Δ / RFD100 ms Δ (%) / RFD200 ms Δ / RFD200 ms Δ (%): baseline to W 8; for RFD30 ms ES (d) / RFD50 ms ES (d) / RFD100 ms ES (d) / RFD200 ms ES (d): effect size
Procedure: Isometric and isokinetic squats were performed using a mechanized squat device (Exerbotics eSq, Tulsa, Okla., USA) (31, 32). At the first assessment, each participant's preferred foot positioning was determined using a custom grid overlaid on the foot platform of the squat device. This foot positioning was recorded and utilized for all visits. No weight belts, knee wraps, or other aids were utilized during testing. Prior to testing, the participant's range of motion for isokinetic testing was determined. The range of motion was set to 90° between the thigh and lower leg at the bottom of the repetition and approximately 170° at the top of the repetition, as determined by a goniometer. The isometric testing included maximal effort pushes at 120° and 150° knee angles. Each participant was instructed to push against the device as hard and fast as possible while attempting to complete a squat movement. Two isometric pushes were performed at each knee angle, and each effort lasted approximately 2 to 3 seconds. After the isometric testing, a 3-repetition maximum isokinetic force production test was completed. Prior to testing, participants observed the movement of the machine and received verbal instruction regarding proper performance of the assessment. Each of the repetitions during the maximal isokinetic force production test consisted of a 4-second eccentric phase, followed by an approximately half-second pause at the 90° knee position and a 4-second concentric phase. During testing, the force signal was sampled from the load cell at 1 kHz (MP100; Biopac Systems, Inc, Santa Barbara, Calif., USA), stored on a personal computer, and processed off-line using custom-written software (LabVIEW, Version 11.0; National Instruments, Austin, Tex., USA). The scaled force signal was low-pass filtered, with a 10-Hz cutoff (zero-phase lag, fourth-order Butterworth filter). All subsequent analyses were conducted on the scaled and filtered force signal. For the isometric force production tests, the rate of force development (RFD) over specific time intervals (i.e. 30, 50, 100 and 200 ms) was calculated by manually specifying the onset of force production within the custom LabVIEW program. For each repetition of the maximum isokinetic force production test, isokinetic peak forces (PF) were determined as the highest mean 25-ms epoch for both concentric and eccentric testing (i.e. PFCONC and PFECC).

## CC(C)(O)CC(=O)O [TRFHMB, β-hydroxy-β-methylbutyrate]
ITT, knee angle 120°, Baseline
  RFD30 ms: 1638 ± 411
  RFD50 ms: 2017 ± 472
  RFD100 ms: 2621 ± 719
  RFD200 ms: 3661 ± 503
ITT, knee angle 120°, W 4
  RFD30 ms: 2131 ± 457
  RFD50 ms: 2760 ± 506
  RFD100 ms: 3451 ± 759
  RFD200 ms: 4121 ± 475
ITT, knee angle 120°, W 8
  RFD30 ms: 2606 ± 494
  RFD50 ms: 3153 ± 510
  RFD100 ms: 4205 ± 774
  RFD200 ms: 4332 ± 472
ITT, knee angle 120°
  RFD30 ms Δ: 969
  RFD30 ms Δ (%): 59%
  RFD50 ms Δ: 1135
  RFD50 ms Δ (%): 56%
  RFD100 ms Δ: 1585
  RFD100 ms Δ (%): 60%
  RFD200 ms Δ: 671
  RFD200 ms Δ (%): 18%
  RFD30 ms ES (d): 0.59
  RFD50 ms ES (d): 0.64
  RFD100 ms ES (d): 0.59
  RFD200 ms ES (d): 0.38
ITT, knee angle 150°, Baseline
  RFD30 ms: 1922 ± 471
  RFD50 ms: 2203 ± 703
  RFD100 ms: 2694 ± 825
  RFD200 ms: 3163 ± 491
ITT, knee angle 150°, W 4
  RFD30 ms: 2612 ± 420
  RFD50 ms: 2989 ± 482
  RFD100 ms: 3567 ± 750
  RFD200 ms: 3511 ± 447
ITT, knee angle 150°, W 8
  RFD30 ms: 2851 ± 469
  RFD50 ms: 3208 ± 468
  RFD100 ms: 3944 ± 754
  RFD200 ms: 3876 ± 443
ITT, knee angle 150°
  RFD30 ms Δ: 929
  RFD30 ms Δ (%): 48%
  RFD50 ms Δ: 1004
  RFD50 ms Δ (%): 46%
  RFD100 ms Δ: 1251
  RFD100 ms Δ (%): 46%
  RFD200 ms Δ: 713
  RFD200 ms Δ (%): 23%
  RFD30 ms ES (d): 0.53
  RFD50 ms ES (d): 0.45
  RFD100 ms ES (d): 0.42
  RFD200 ms ES (d): 0.41
PP, knee angle 120°, Baseline
  RFD30 ms: 1669 ± 662
  RFD50 ms: 2016 ± 758
  RFD100 ms: 2642 ± 1153
  RFD200 ms: 4079 ± 688
PP, knee angle 120°, W 4
  RFD30 ms: 2267 ± 723
  RFD50 ms: 3028 ± 787
  RFD100 ms: 3845 ± 1195
  RFD200 ms: 4636 ± 648
PP, knee angle 120°, W 8
  RFD30 ms: 2917 ± 675
  RFD50 ms: 3470 ± 675
  RFD100 ms: 4629 ± 1111
  RFD200 ms: 4824 ± 569
PP, knee angle 120°
  RFD30 ms Δ: 1248
  RFD30 ms Δ (%): 75%
  RFD50 ms Δ: 1454
  RFD50 ms Δ (%): 72%
  RFD100 ms Δ: 1987
  RFD100 ms Δ (%): 75%
  RFD200 ms Δ: 745
  RFD200 ms Δ (%): 18%
  RFD30 ms ES (d): 0.71
  RFD50 ms ES (d): 0.77
  RFD100 ms ES (d): 0.66
  RFD200 ms ES (d): 0.45
PP, knee angle 150°, Baseline
  RFD30 ms: 2121 ± 770
  RFD50 ms: 2420 ± 1187
  RFD100 ms: 3072 ± 1377
  RFD200 ms: 3441 ± 708
PP, knee angle 150°, W 4
  RFD30 ms: 2845 ± 625
  RFD50 ms: 3274 ± 715
  RFD100 ms: 3940 ± 1178
  RFD200 ms: 3613 ± 634
PP, knee angle 150°, W 8
  RFD30 ms: 3177 ± 622
  RFD50 ms: 3572 ± 604
  RFD100 ms: 4346 ± 1070
  RFD200 ms: 4237 ± 558
PP, knee angle 150°
  RFD30 ms Δ: 1056
  RFD30 ms Δ (%): 50%
  RFD50 ms Δ: 1152
  RFD50 ms Δ (%): 48%
  RFD100 ms Δ: 1274
  RFD100 ms Δ (%): 41%
  RFD200 ms Δ: 796
  RFD200 ms Δ (%): 23%
  RFD30 ms ES (d): 0.57
  RFD50 ms ES (d): 0.46
  RFD100 ms ES (d): 0.39
  RFD200 ms ES (d): 0.47
